ChEMBL document CHEMBL1132330 (J Med Chem, 1999)

Legend:
[1] = test system: Substance-K receptor (Mesocricetus auratus); assay: Efficacy towards hamster Tachykinin receptor 2 was determined
Substance-K receptor [2] = target: T1, Substance-K receptor (Homo sapiens, UniProt P21452); assay: Inhibitory activity against human Tachykinin receptor 2
T1 sequence (P21452 whole entry): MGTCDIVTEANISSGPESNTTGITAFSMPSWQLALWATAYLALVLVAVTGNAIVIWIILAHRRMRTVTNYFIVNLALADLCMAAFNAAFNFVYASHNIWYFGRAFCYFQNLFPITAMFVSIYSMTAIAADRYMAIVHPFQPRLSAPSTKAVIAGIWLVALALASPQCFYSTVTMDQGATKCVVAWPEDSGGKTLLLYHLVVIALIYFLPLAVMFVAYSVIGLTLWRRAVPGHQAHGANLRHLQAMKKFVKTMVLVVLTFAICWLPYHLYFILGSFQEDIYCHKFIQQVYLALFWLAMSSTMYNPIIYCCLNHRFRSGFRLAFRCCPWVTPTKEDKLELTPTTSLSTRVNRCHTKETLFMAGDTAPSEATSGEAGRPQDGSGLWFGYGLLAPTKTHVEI

Substance-K receptor [3] = target: T1, Substance-K receptor; assay: The compound was tested for competition binding with [3H]NKA against the CHO cells from cloned human Tachykinin receptor 2; assay type: cell-based

Efficacy [1] | IC50 (Substance-K receptor [2]) | Ki (Substance-K receptor [3]) | Compound
116 | – | – | CC(C)CC[C@H](NC(=O)[C@H](CC(C)C)NC(=O)CNC(=O)[C@@H](NC(=O)[C@H](Cc1ccccc1)NC(=O)[C@@H](NC(=O)[C@@H](N)CC(=O)O)[C@@H](C)O)C(C)C)C(N)=O
114 | – | – | CC(C)CC[C@H](NC(=O)[C@H](CC(C)C)NC(=O)CNC(=O)[C@@H](NC(=O)[C@H](Cc1ccc(F)cc1)NC(=O)[C@@H](NC(=O)[C@@H](N)CC(=O)O)[C@@H](C)O)C(C)C)C(N)=O
97.8 | – | – | CC(C)CC[C@H](NC(=O)[C@H](CC(C)C)NC(=O)CNC(=O)[C@@H](NC(=O)[C@H](Cc1ccc(Cl)cc1)NC(=O)[C@@H](NC(=O)[C@@H](N)CC(=O)O)[C@@H](C)O)C(C)C)C(N)=O
– | 102 nM | 42.2 nM | CSCC[C@H](NC(=O)[C@H](CC(C)C)NC(=O)CNC(=O)[C@@H](NC(=O)[C@H](Cc1ccccc1)NC(=O)[C@H](Cc1ccccc1)NC(=O)[C@H](CC(=O)O)NC(=O)[C@H](Cc1c[nH]cn1)NC(=O)[C@H](CCSC)NC(=O)[C@@H](N)CC(=O)O)C(C)C)C(N)=O [NEUROKININ B]
